We go through five compounds from patent publication US20100233456A1, “LIGHT-STABILIZED POLYPROPYLENE” (SUMITOMO CHEMICAL COMPANY, LIMITED, priority 2007, published 2010).

Data set [1] can be described thus: Rate of weight loss by TG/DTA. The settings on record: heated in nitrogen gas from 25° C. to 300° C. at 10° C./minute. It counts as physicochemical. As for the experimental part:
Regarding the requirement (c), the rate of decrease in weight by heating under the above conditions is preferably less than 5%, and further preferably less than 3%, from a viewpoint of an emission amount of VOC and light stability. A rate of decrease in weight of the hindered amine light stabilizer (B) is measured using a thermo gravimetry differential thermal analyzer (hereinafter, referred to as TG/DTA). Specifically, the hindered amine light stabilizer (B) is heated from 25° C. to 300° C. at a rate of 10° C./minute in a nitrogen gas atmosphere, which gas is flowed at a constant rate of 100 mL/minute, thereby measuring the rate (percentage) of a weight loss to the original weight with a thermobalance.

A short description of data set [2]: Acid dissociation constant (pKa) by titration method.
Method: The pKa value is an index showing an inherent nature of the compound having a 2,2,6,6-tetramethylpiperidyl group represented by the general formula (I), and is measured by a titration method known in the art, which is a measurement method of an acid dissociation constant based on a Brøsted's definition.

The pKa is the negative logarithm of the acid dissociation constant. A higher pKa goes with a group that holds its proton tightly.

Take `CC1(C)CC(OC(=O)CCCCCCCCC(=O)OC2CC(C)(C)NC(C)(C)C2)CC(C)(C)N1` [Example B-3, bis(2,2,6,6-tetramethyl-4-piperidyl) sebacate]: in data set [1], the “Rate of weight loss by TG-DTA” value is given as 19.6%.
As to “N,N-bis(3-aminopropyl)ethylenediamine. 2,4-bis[N-butyl-N-(1,2,2,6,6-pentamethyl-4-piperidyl)amino]-6-chloro-1,3,5-triazine condensate [Example B-5]”, in data set [1], the “Rate of weight loss by TG-DTA” value was determined as 0.6%. The same compound yielded a pKa in data set [2] of 9.2.
Consider `CCCCCCCCON1C(C)(C)CC(OC(=O)CCCCCCCCC(=O)OC2CC(C)(C)N(OCCCCCCCC)C(C)(C)C2)CC1(C)C` [Example B-4, bis(1-octyloxy-2,2,6,6-tetramethylpiperidin-4-yl) sebacate], for which the “Rate of weight loss by TG-DTA” value in data set [1] is 68.6%.
`CN1C(C)(C)CC(OC(=O)CC(C(=O)OC2CC(C)(C)N(C)C(C)(C)C2)C(CC(=O)OC2CC(C)(C)N(C)C(C)(C)C2)C(=O)OC2CC(C)(C)N(C)C(C)(C)C2)CC1(C)C` (stereo not shown) [Example B-2, tetrakis(1,2,2,6,6-pentamethyl-4-piperidyl) 1,2,3,4-buteane tetracarboxylate]: the “Rate of weight loss by TG-DTA” value in data set [1] amounted to 5.8%. In data set [2], this compound registered a pKa of 8.9.
As for `CC(C)(C)c1ccc(OC(=O)c2cc(C(C)(C)C)c(O)c(C(C)(C)C)c2)c(C(C)(C)C)c1` [Example B-6, 2,4-di-t-butylphenyl-3,5-di-t-butyl-4-hydroxybenzoate], in data set [1], the “Rate of weight loss by TG-DTA” value is 31.6%.
